Assay results reported in the OligoGym collection.
HELM strings list units from the 5' end as sugar, base in round brackets, then linkage (d deoxyribose, r ribose, m 2'-O-methyl, p phosphodiester). Strings are as the collection lists them, not checked against the first reports. ss, as = sense and antisense strand; [fl2r] = 2'-fluoro

Conditions: siRNA
Further: test system not given here.

Substance	target mRNA knockdown
RNA1{r(C)p.r(G)p.r(A)p.r(A)p.r(A)p.r(G)p.[fl2r](U)p.r(G)p.[fl2r](U)p.r(A)p.r(U)p.r(C)p.r(C)p.r(G)p.r(A)p.r(A)p.r(G)p.r(A)p.r(C)p.r(T)p.r(T)}|RNA2{r(G)p.r(U)p.r(C)p.r(U)p.r(U)p.r(C)p.r(G)p.r(G)p.r(A)p.[fl2r](U)p.r(A)p.[fl2r](C)p.r(A)p.r(C)p.r(U)p.r(U)p.r(U)p.r(C)p.r(G)p.r(T)p.r(T)}$$$RNA1{StrandType:ss}|RNA2{StrandType:as}$	75%
RNA1{r(A)p.r(A)p.r(G)p.r(G)p.r(A)p.r(C)p.r(C)p.[fl2r](U)p.r(A)p.r(G)p.r(A)p.r(G)p.r(G)p.r(A)p.r(G)p.r(U)p.r(C)p.r(A)p.r(C)p.r(T)p.r(T)}|RNA2{r(G)p.r(U)p.r(G)p.r(A)p.r(C)p.r(U)p.r(C)p.r(C)p.r(U)p.r(C)p.[fl2r](U)p.r(A)p.r(G)p.r(G)p.r(U)p.r(C)p.r(C)p.r(U)p.r(U)p.r(T)p.r(T)}$$$RNA1{StrandType:ss}|RNA2{StrandType:as}$	88%
RNA1{r(G)p.r(A)p.r(A)p.r(G)p.r(A)p.r(U)p.r(A)p.r(G)p.r(G)p.r(A)p.r(A)p.r(G)p.r(G)p.r(G)p.r(G)p.r(C)p.r(U)p.r(U)p.r(C)p.r(T)p.r(T)}|RNA2{r(G)p.r(A)p.r(A)p.r(G)p.[fl2r](C)p.[fl2r](C)p.[fl2r](C)p.[fl2r](C)p.[fl2r](U)p.[fl2r](U)p.[fl2r](C)p.[fl2r](C)p.[fl2r](U)p.r(A)p.[fl2r](U)p.[fl2r](C)p.[fl2r](U)p.[fl2r](U)p.[fl2r](C)p.r(T)p.r(T)}$$$RNA1{StrandType:ss}|RNA2{StrandType:as}$	5%
RNA1{r(A)p.r(C)p.r(C)p.r(U)p.[fl2r](U)p.r(A)p.r(A)p.r(G)p.r(G)p.r(A)p.r(C)p.r(C)p.r(A)p.r(C)p.r(C)p.r(G)p.r(G)p.r(A)p.r(U)p.r(T)p.r(T)}|RNA2{r(A)p.r(U)p.r(C)p.r(C)p.r(G)p.r(G)p.[fl2r](U)p.r(G)p.r(G)p.r(U)p.r(C)p.r(C)p.r(U)p.r(U)p.r(A)p.r(A)p.r(G)p.r(G)p.r(U)p.r(T)p.r(T)}$$$RNA1{StrandType:ss}|RNA2{StrandType:as}$	71%
RNA1{r(A)p.r(A)p.r(G)p.r(G)p.r(A)p.r(G)p.r(A)p.m(U)p.m(C)p.r(A)p.r(A)p.m(C)p.r(A)p.m(U)p.m(U)p.m(U)p.m(U)p.m(C)p.r(A)p.r(T)p.r(T)}|RNA2{m(U)p.r(G)p.r(A)p.r(A)p.r(A)p.r(A)p.m(U)p.r(G)p.m(U)p.m(U)p.r(G)p.r(A)p.m(U)p.m(C)p.m(U)p.m(C)p.m(C)p.m(U)p.m(U)p.r(T)p.r(T)}$$$RNA1{StrandType:ss}|RNA2{StrandType:as}$	37%
RNA1{r(A)p.r(A)p.r(G)p.r(U)p.[fl2r](A)p.r(G)p.r(U)p.r(C)p.r(C)p.r(C)p.r(C)p.r(C)p.r(U)p.r(U)p.r(G)p.r(A)p.r(A)p.r(G)p.r(A)p.r(T)p.r(T)}|RNA2{r(U)p.r(C)p.r(U)p.r(U)p.r(C)p.r(A)p.r(A)p.r(G)p.r(G)p.r(G)p.r(G)p.r(G)p.r(A)p.r(C)p.[fl2r](U)p.r(A)p.r(C)p.r(U)p.r(U)p.r(T)p.r(T)}$$$RNA1{StrandType:ss}|RNA2{StrandType:as}$	69%
RNA1{r(A)p.r(A)p.r(G)p.r(G)p.r(A)p.r(C)p.r(C)p.m(U)p.r(A)p.r(G)p.r(A)p.r(G)p.r(G)p.r(A)p.r(G)p.r(U)p.r(C)p.r(A)p.r(C)p.r(T)p.r(T)}|RNA2{r(G)p.m(U)p.r(G)p.r(A)p.r(C)p.r(U)p.r(C)p.r(C)p.r(U)p.r(C)p.r(U)p.r(A)p.r(G)p.r(G)p.r(U)p.r(C)p.r(C)p.r(U)p.r(U)p.r(T)p.r(T)}$$$RNA1{StrandType:ss}|RNA2{StrandType:as}$	80%
RNA1{r(C)p.[fl2r](C)p.r(A)p.r(G)p.r(C)p.r(G)p.r(A)p.r(G)p.r(C)p.r(C)p.[fl2r](C)p.r(A)p.r(A)p.r(A)p.r(A)p.r(G)p.r(A)p.r(A)p.r(A)p.r(T)p.r(T)}|RNA2{r(U)p.r(U)p.r(U)p.r(C)p.r(U)p.r(U)p.r(U)p.r(U)p.r(G)p.r(G)p.r(G)p.r(C)p.r(U)p.r(C)p.r(G)p.r(C)p.r(U)p.r(G)p.r(G)p.r(T)p.r(T)}$$$RNA1{StrandType:ss}|RNA2{StrandType:as}$	85%
RNA1{r(G)p.r(A)p.m(U)p.r(A)p.r(C)p.r(U)p.r(U)p.r(C)p.r(U)p.r(G)p.r(G)p.r(U)p.r(U)p.r(C)p.r(C)p.r(C)p.r(U)p.r(C)p.r(C)p.r(T)p.r(T)}|RNA2{r(G)p.r(G)p.r(A)p.r(G)p.r(G)p.r(G)p.r(A)p.r(A)p.r(C)p.r(C)p.r(A)p.r(G)p.r(A)p.r(A)p.r(G)p.m(U)p.r(A)p.r(U)p.r(C)p.r(T)p.r(T)}$$$RNA1{StrandType:ss}|RNA2{StrandType:as}$	46%
RNA1{r(A)p.r(A)p.r(C)p.r(C)p.m(C)p.r(A)p.r(A)p.r(A)p.r(G)p.r(G)p.r(G)p.m(G)p.r(A)p.r(G)p.r(U)p.m(U)p.r(G)p.r(C)p.r(U)p.r(T)p.r(T)}|RNA2{r(A)p.r(G)p.m(C)p.r(A)p.r(A)p.r(C)p.r(U)p.r(C)p.r(C)p.r(C)p.r(C)p.r(U)p.r(U)p.m(U)p.r(G)p.r(G)p.r(G)p.r(U)p.r(U)p.r(T)p.r(T)}$$$RNA1{StrandType:ss}|RNA2{StrandType:as}$	92%
RNA1{m(G)p.r(C)p.m(U)p.r(G)p.m(A)p.r(G)p.m(G)p.r(A)p.m(A)p.r(A)p.m(G)p.r(G)p.m(G)p.r(A)p.m(C)p.r(A)p.m(U)p.r(C)p.m(U)p.r(T)p.r(T)}|RNA2{r(A)p.r(G)p.r(A)p.r(U)p.r(G)p.r(U)p.r(C)p.r(C)p.r(C)p.r(U)p.r(U)p.r(U)p.r(C)p.r(C)p.r(U)p.r(C)p.r(A)p.r(G)p.r(C)p.r(T)p.r(T)}$$$RNA1{StrandType:ss}|RNA2{StrandType:as}$	61%
RNA1{m(G)p.r(A)p.m(G)p.r(G)p.m(A)p.r(U)p.m(G)p.r(G)p.m(A)p.r(U)p.m(U)p.r(C)p.m(G)p.r(A)p.m(C)p.r(U)p.m(U)p.r(A)p.r(G)p.r(T)p.r(T)}|RNA2{r(C)p.m(U)p.r(A)p.r(A)p.r(G)p.m(U)p.r(C)p.r(G)p.r(A)p.r(A)p.m(U)p.r(C)p.r(C)p.r(A)p.r(U)p.r(C)p.r(C)p.r(U)p.r(C)p.r(T)p.r(T)}$$$RNA1{StrandType:ss}|RNA2{StrandType:as}$	23%
RNA1{[fl2r](G)p.r(C)p.[fl2r](U)p.r(G)p.[fl2r](A)p.r(A)p.[fl2r](C)p.r(U)p.[fl2r](A)p.r(G)p.[fl2r](U)p.r(C)p.[fl2r](G)p.r(A)p.[fl2r](A)p.r(A)p.[fl2r](G)p.r(A)p.[fl2r](A)p.r(T)p.r(T)}|RNA2{r(U)p.r(U)p.r(C)p.r(U)p.r(U)p.r(U)p.r(C)p.r(G)p.[fl2r](A)p.r(C)p.r(U)p.[fl2r](A)p.r(G)p.r(U)p.r(U)p.r(C)p.[fl2r](A)p.r(G)p.r(C)p.r(T)p.r(T)}$$$RNA1{StrandType:ss}|RNA2{StrandType:as}$	49%
RNA1{m(A)p.r(G)p.m(C)p.r(G)p.m(G)p.r(G)p.m(G)p.r(U)p.m(A)p.r(U)p.m(G)p.r(A)p.m(A)p.r(G)p.m(A)p.r(G)p.m(C)p.r(U)p.m(U)p.r(T)p.r(T)}|RNA2{r(A)p.r(A)p.r(G)p.r(C)p.r(U)p.r(C)p.r(U)p.r(U)p.r(C)p.r(A)p.r(U)p.r(A)p.r(C)p.r(C)p.r(C)p.r(C)p.r(G)p.r(C)p.r(U)p.r(T)p.r(T)}$$$RNA1{StrandType:ss}|RNA2{StrandType:as}$	75%
